molecular target: T1, Recombinant human p70S6K kinase (Homo sapiens, UniProt P23443); assay: S6K Enzymatic Inhibition Assay (HotSpot kinase assay; called S6K binding assay in Table 2); format: biochemical; settings: IC50 class
T1 construct: purchased ThermoFisher Scientific PV3815
Protocol: Enzymatic activity was determined using a commercial HotSpot kinase assay. Recombinant human p70S6K kinase was purchased from ThermoFisher Scientific (cat #PV3815). The substrate S6K/RSK2 peptide 2 was synthesized at Genscript [Piscataway, NJ]. In brief, the substrate was prepared in the reaction buffer [20 mM Hepes (pH 7.5), 10 mM MgCl2, 1 mM EGTA, 0.02% Brij35, 0.02 mg/mL BSA, 0.1 mM Na3VO4, 2 mM DTT, 1% DMSO]. Testing compounds were dissolved in 100% DMSO and a serial dilution was conducted in DMSO. The kinase at final concentration of 3 nM was added into the substrate solution and gently mixed. Test compounds were delivered at the appropriate concentrations into the kinase reaction mixture by Echo550, and incubated for 20 minutes at room temperature. ^33P-ATP (Specific activity 10 μCi/μL) was added into the reaction mixture to initiate the reaction. Assay plates were incubated for 2 hours at room temperature. The radioactivity was detected by filter-binding method. Kinase activity data is expressed as the percent remaining kinase activity in test samples compared to vehicle (DMSO) reactions. IC50 curves were plotted and IC50 values were calculated using the GraphPad Prism 4 program based on a sigmoidal dose-response equation.

T1 sequence (P23443 whole entry): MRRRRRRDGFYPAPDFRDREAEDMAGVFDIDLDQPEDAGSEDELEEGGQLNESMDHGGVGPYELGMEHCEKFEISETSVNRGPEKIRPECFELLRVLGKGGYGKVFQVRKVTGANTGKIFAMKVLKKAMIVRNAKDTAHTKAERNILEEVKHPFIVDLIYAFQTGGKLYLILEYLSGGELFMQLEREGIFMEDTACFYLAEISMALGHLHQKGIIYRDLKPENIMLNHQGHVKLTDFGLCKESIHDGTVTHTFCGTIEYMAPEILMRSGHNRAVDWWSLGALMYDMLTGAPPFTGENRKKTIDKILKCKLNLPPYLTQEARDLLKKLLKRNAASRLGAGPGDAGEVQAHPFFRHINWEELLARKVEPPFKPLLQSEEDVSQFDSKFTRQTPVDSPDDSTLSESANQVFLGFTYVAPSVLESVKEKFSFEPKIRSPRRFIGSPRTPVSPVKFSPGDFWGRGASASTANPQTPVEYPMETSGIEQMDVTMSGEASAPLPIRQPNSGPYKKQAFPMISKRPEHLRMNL

IC50	SMILES
500 to 10000 nM	Nc1ncnc(-c2cnn(-c3cccc(C(F)(F)F)c3)c2)c1-c1ccc(Cl)cc1 [Example 13, 5-(p-Chlorophenyl)-6-{1-[m-(trifluoromethyl)phenyl]-1H-pyrazol-4-yl}-4-pyrimidinylamine]
< 50 nM	COc1ccc(-c2c(N)ncnc2-c2cnn(Cc3ccc(C(F)(F)F)cc3)c2)cc1 [Example 24, 5-(p-Methoxyphenyl)-6-(1-{[p-(trifluoromethyl)phenyl]methyl}-1H-pyrazol-4-yl)-4-pyrimidinylamine]
500 to 10000 nM	Nc1ncnc(-c2cnn(Cc3ccc(C(F)(F)F)cc3)c2)c1-c1ccc(Cl)c(Cl)c1 [Example 28, 5-(3,4-Dichlorophenyl)-6-(1-{[p-(trifluoromethyl)phenyl]methyl}-1H-pyrazol-4-yl)-4-pyrimidinylamine]

Reference: US12234224B2, “Pyrimidine and pyridine amine compounds and usage thereof in disease treatment” (Epigen Biosciences, Inc., priority 2021, dated 2025)
